Values of other authors in article PMC6500982 (Cancer Science, 2019).
Like-named read-outs stand apart in the source and are kept apart here.

Test system: ABC DLBCL tumors
Details: cited from earlier work

SMILES: C=CC(=O)N1CCC[C@@H](n2nc(-c3ccc(Oc4ccccc4)cc3)c3c(N)ncnc32)C1 [ibrutinib]
- Patients who responded to treatment (ABC tumors with B‐cell receptor mutations who also had MYD88 mutations): 80%
- Patients who responded to treatment (ABC tumors with B‐cell receptor mutations): 55.5%
